System: patients with Alzheimer's disease
Experiment: Phase 3 study AB09004: change from baseline in ADCS-ADL score
Type: in vivo, human
Design: key to δLSM (ADCS-ADL): LSM difference in ADCS-ADL change; positive = improvement
Conditions: for δLSM (ADCS-ADL) / ΔLSM (ADCS-ADL): 4.5 mg/kg/day; for δLSM (ADCS-ADL): week 24 from baseline; for ΔLSM (ADCS-ADL): vs placebo, week 24; for improved benefit relative to complementary subpopulation: ΔLSM (ADCS-ADL)
Description: An international, multicenter, randomized, double-blind, placebo-controlled phase 3 study was conducted with the objective to evaluate oral masitinib at a dose of 4.5 mg/kg/day as a treatment for Alzheimer's disease.
Eligible patients, aged at least 50 years, were diagnosed with dementia of Alzheimer's type according to Diagnostic and Statistical Manual of Mental Disorders (DSM)-IV criteria, and probable Alzheimer's disease according to NINCDS-ADRDA (National Institute of Neurological and Communicative Diseases and Stroke/Alzheimer's Disease and Related Disorders Association) criteria. […] Patients with any other cause of dementia not due to Alzheimer's disease were ineligible for the study.
Eligible patients were treated during 24 weeks with masitinib at a dose of 4.5 mg/kg/day (mg per kilo body weight per day) or with placebo. Treatment was administered as add-on therapy in patients who had been treated for a minimum of 6 months with a stable dose of cholinesterase inhibitors (donepezil, rivastigmine or galantamine) and/or memantine, with no changes foreseen in therapy throughout the study.
Primary analysis was based on the co-primary endpoints of: • Change from baseline in Alzheimer's Disease Cooperative Study Activities of Daily Living (ADCS-ADL) score. The ADCS-ADL assesses the competence of patients with Alzheimer's disease in basic and instrumental activities of daily living (ADLs). • Change from baseline in Alzheimer's Disease Assessment Scale-Cognitive Subscale (ADAS-Cog). The ADAS-Cog assesses cognition and memory.
Treatment effect (masitinib versus placebo) was assessed based on absolute change from baseline to week 24 by using an analysis of covariance model (ANCOVA linear model) with the following factors: treatment, baseline value, and stratification criteria of baseline MMSE score, age, ADCS-ADL total score, and ADAS-Cog total score.
For ADCS-ADL, the global score (i.e., the sum of 23 items rated by the caregiver) was used with a range from 0 to 78, wherein 78 implies full functioning with no impairment. Thus, a higher score signifies greater functional ability, while a lower score signifies greater (worse) impairment. Results are expressed as a least-squares means difference (δLSM) of absolute change in ADCS-ADL score from baseline; that is to say, the change over time in the ADCS-ADL score, or in other words the difference between the ADCS-ADL score at baseline (before treatment initiation) and the ADCS-ADL score after treatment with masitinib or with placebo. An increase in ADCS-ADL score with respect to baseline (i.e., a positive δLSM) indicates an improvement in the patient and therefore disease stability, whereas a decrease in ADCS-ADL score with respect to baseline (i.e., negative δLSM) indicates a worsening in the patient and therefore disease progression. Treatment-effect is reported as the difference between treatment-arms (ΔLSM) (calculated as δLSM[masitinib] minus δLSM[placebo]), with a positive value indicating a beneficial effect of treatment with masitinib as compared to treatment with placebo. In a scenario where both treatment-arms show worsening in activities of daily living (i.e., a negative δLSM), then a positive ΔLSM indicates a beneficial treatment effect for masitinib, i.e., the rate of decline in masitinib treated patients is slower than that of patients from the placebo-arm.
The comparison was carried out using the following information: • δLSM: least-squares means difference of absolute change in endpoint score at week 24 from baseline, either according to ADAS-Cog assessment or to ADCS-ADL assessment. • ΔLSM: Difference between treatment-arms (treatment-effect) calculated as δLSM[masitinib] minus δLSM[placebo]. • Δsub/Δoverall: Ratio of subpopulation's placebo-controlled treatment-effect (ΔLSM at W24 for masitinib 4.5 mg/kg/d parallel arm) versus overall study population's placebo-controlled treatment-effect (ΔLSM at W24 for masitinib 4.5 mg/kg/d parallel arm). […]

In the case of `Cc1ccc(NC(=O)c2ccc(CN3CCN(C)CC3)cc2)cc1Nc1nc(-c2cccnc2)cs1` [masitinib, 4-(4-methylpiperazin-1-ylmethyl)-N-[4-methyl-3-(4-pyridin-3ylthiazol-2-ylamino)phenyl]benzamide], the “δLSM (ADCS-ADL)” value (MMSE [12-20]) is reported as −0.4369, the “ΔLSM (ADCS-ADL)” value (MMSE [25-21]) is reported as “+2.7435 points” and the “ΔLSM (ADCS-ADL)” value (MMSE [25-21], listed as M4.5, 4.5 mg/kg/day) is reported as 2.7435 points. The “δLSM (ADCS-ADL)” value (MMSE [25-21]) was 3.5738, the “ΔLSM (ADCS-ADL)” value (MMSE ≥13) was 2.0496 points and the “δLSM (ADCS-ADL)” value (MMSE ≥13) was 1.1204. The “ΔLSM (ADCS-ADL)” value (MMSE ≥14) was “+2.4046 points”, the “ΔLSM (ADCS-ADL)” value (MMSE ≥14, listed as M4.5, 4.5 mg/kg/day) was 2.4046 points and the “δLSM (ADCS-ADL)” value (MMSE ≥14) was 1.3505. For the same compound, the “ΔLSM (ADCS-ADL)” value (MMSE ≥15) was 2.2738 points, the “δLSM (ADCS-ADL)” value (MMSE ≥15) was 1.3520 and the “ΔLSM (ADCS-ADL)” value (MMSE ≥16) was 2.5566 points. For the same compound, the “δLSM (ADCS-ADL)” value (MMSE ≥16) was 1.6088, the “ΔLSM (ADCS-ADL)” value (MMSE ≥17) was 2.2870 points and the “δLSM (ADCS-ADL)” value (MMSE ≥17) was 1.0330. For the same compound, the “ΔLSM (ADCS-ADL)” value (Overall Population) was 1.8190 points, the “δLSM (ADCS-ADL)” value (Overall Population) was 1.0107 and the Δsub/Δoverall (ratio of ΔLSM (ADCS-ADL) at W24, Baseline ADCS-ADL >39 vs overall study population) was 1.14. For the same compound, the Δsub/Δoverall (ratio of ΔLSM (ADCS-ADL) at W24, Baseline ADCS-ADL >47 vs overall study population) was 1.19, the Δsub/Δoverall (ratio of ΔLSM (ADCS-ADL) at W24, Baseline ADCS-ADL >55 vs overall study population) was 1.75 and the Δsub/Δoverall (ratio of ΔLSM (ADCS-ADL) at W24, Baseline ADCS-ADL ≥32 vs overall study population) was 1.09. For the same compound, the Δsub/Δoverall (ratio of ΔLSM (ADCS-ADL) at W24, Baseline ADCS-ADL ≥35 vs overall study population) was 1.11, the Δsub/Δoverall (ratio of ΔLSM (ADCS-ADL) at W24, Baseline ADCS-ADL ≥38 vs overall study population) was 1.28 and the Δsub/Δoverall (ratio of ΔLSM (ADCS-ADL) at W24, Baseline ADCS-ADL ≥41 vs overall study population) was 1.11. The Δsub/Δoverall (ratio of ΔLSM (ADCS-ADL) at W24, Baseline ADCS-ADL ≥50 vs overall study population) was 1.78, the Δsub/Δoverall (ratio of ΔLSM (ADCS-ADL) at W24, MMSE [20-12] vs overall study population) was 0.76 and the Δsub/Δoverall (ratio of ΔLSM (ADCS-ADL) at W24, MMSE [25-21] vs overall study population) was 1.51. For the same compound, the Δsub/Δoverall (ratio of ΔLSM (ADCS-ADL) at W24, MMSE ≥13 vs overall study population) was 1.13, the Δsub/Δoverall (ratio of ΔLSM (ADCS-ADL) at W24, MMSE ≥14 vs overall study population) was 1.32 and the Δsub/Δoverall (ratio of ΔLSM (ADCS-ADL) at W24, MMSE ≥15 vs overall study population) was 1.25. For the same compound, the Δsub/Δoverall (ratio of ΔLSM (ADCS-ADL) at W24, MMSE ≥16 vs overall study population) was 1.41, the Δsub/Δoverall (ratio of ΔLSM (ADCS-ADL) at W24, MMSE ≥17 vs overall study population) was 1.26 and the “Δsub/Δoverall (percentage improvement)” value (ΔLSM (ADCS-ADL) at W24, Baseline ADCS-ADL >39 vs overall study population) was “(14%)”. The “Δsub/Δoverall (percentage improvement)” value (ΔLSM (ADCS-ADL) at W24, Baseline ADCS-ADL >47 vs overall study population) was “(19%)”, the “Δsub/Δoverall (percentage improvement)” value (ΔLSM (ADCS-ADL) at W24, Baseline ADCS-ADL >55 vs overall study population) was 75% and the “Δsub/Δoverall (percentage improvement)” value (ΔLSM (ADCS-ADL) at W24, Baseline ADCS-ADL >55 vs overall study population, listed as M4.5) was “(75%)”. The “Δsub/Δoverall (percentage improvement)” value (ΔLSM (ADCS-ADL) at W24, Baseline ADCS-ADL ≥32 vs overall study population) was “(9%)”, the “Δsub/Δoverall (percentage improvement)” value (ΔLSM (ADCS-ADL) at W24, Baseline ADCS-ADL ≥35 vs overall study population) was “(11%)” and the “Δsub/Δoverall (percentage improvement)” value (ΔLSM (ADCS-ADL) at W24, Baseline ADCS-ADL ≥38 vs overall study population) was “(28%)”. For the same compound, the “Δsub/Δoverall (percentage improvement)” value (ΔLSM (ADCS-ADL) at W24, Baseline ADCS-ADL ≥41 vs overall study population) was “(11%)”, the “Δsub/Δoverall (percentage improvement)” value (ΔLSM (ADCS-ADL) at W24, Baseline ADCS-ADL ≥50 vs overall study population) was 78% and the “Δsub/Δoverall (percentage improvement)” value (ΔLSM (ADCS-ADL) at W24, Baseline ADCS-ADL ≥50 vs overall study population, listed as M4.5) was “(78%)”. For the same compound, the “Δsub/Δoverall (percentage improvement)” value (ΔLSM (ADCS-ADL) at W24, MMSE [20-12] vs overall study population) was “(−24%)”, the “Δsub/Δoverall (percentage improvement)” value (ΔLSM (ADCS-ADL) at W24, MMSE [25-21] vs overall study population) was 51% and the “Δsub/Δoverall (percentage improvement)” value (ΔLSM (ADCS-ADL) at W24, MMSE [25-21] vs overall study population, listed as M4.5) was “(51%)”. For the same compound, the “Δsub/Δoverall (percentage improvement)” value (ΔLSM (ADCS-ADL) at W24, MMSE ≥13 vs overall study population) was “(13%)”, the “Δsub/Δoverall (percentage improvement)” value (ΔLSM (ADCS-ADL) at W24, MMSE ≥14 vs overall study population) was 32% and the “Δsub/Δoverall (percentage improvement)” value (ΔLSM (ADCS-ADL) at W24, MMSE ≥14 vs overall study population, listed as M4.5) was “(32%)”. The “Δsub/Δoverall (percentage improvement)” value (ΔLSM (ADCS-ADL) at W24, MMSE ≥15 vs overall study population) was “(25%)”, the “Δsub/Δoverall (percentage improvement)” value (ΔLSM (ADCS-ADL) at W24, MMSE ≥16 vs overall study population) was “(41%)” and the “Δsub/Δoverall (percentage improvement)” value (ΔLSM (ADCS-ADL) at W24, MMSE ≥17 vs overall study population) was “(26%)”. The “improved benefit relative to complementary subpopulation” value (baseline ADAS-Cog ≤25 relative to >25) was 84%, the “improved benefit relative to complementary subpopulation” value (baseline ADCS-ADL >39 relative to ≤39) was 191% and the “improved benefit relative to complementary subpopulation” value (baseline ADCS-ADL >55 relative to ≤55) was “about 600%”. For the same compound, the “improved benefit relative to complementary subpopulation” value (baseline MMSE 25 to 21 relative to MMSE 20 to 12, printed as 'between 99% to 66%') was 99%.
